Patent US10302644B2, “Compositions and methods for treating multiple myeloma” (Dana-Farber Cancer Institute, Inc., priority 2014, dated 2019)

How the values were obtained:
p53 [1] = assay: Immunoblotting of p53 and phosphorylated p53 in MM cells; assay type: cell-based
Procedure: (§1) MM cells were harvested and lysed using RIPA-lysis buffer (Boston Bioproducts, Ashland, Mass.) containing 5 mM EDTA, 5 mM NaF, 2 mM Na3VO4, 1 mM PMSF, 5 μg/ml leupeptin, and 5 μg/ml aprotinin. Nuclear proteins were extracted using “Nuclear Extraction Kit” (Affimetrix). After the determination of protein concentration using DC protein assay (Bio-Rad, Hercules, Calif.), β-mercaptoethanol (-ME) was added to the whole-cell lysates to a 2% final concentration. The whole cell lysates or nuclear extracts were subjected to SDS-PAGE, transferred to nitrocellulose membranes (Bio-Rad, Hercules, Calif.) or polyvinylidene fluoride membranes (Millipore, Billerica, Mass.), and immunoblotted with indicated Abs. Silver staining was carried out using “SilverQuest Staining Kit®” (Invitrogen), according to manufacturer's protocol.

TP53RK, CRBN = assay: TP53RK and CRBN expression in MM cells (immunoblotting, qPCR); assay type: cell-based; conditions: MM.1S cells, 48 h
Procedure: as §1
(§2) RNA was extracted using Trizol (Invitrogen) and quantified by a Nanodrop spectrophotometer (Labtech). Specifically, 5×10^6 cells were pelleted, washed with cold PBS, and resuspended in 1 mL Trizol. They were then incubated with 1-Bromo-3-chloropropane (Sigma), washed first with Isopropyl alcohol and then with 75% Ethanol, and resuspended in Nuclease Free-water (Invitrogen). After quantification, 2000 ng of RNA was used to synthesize cDNA via the Superscript II First strand synthesis Kit (Invitrogen), according to the manufacturer's instructions. To evaluate the expression levels of TP53RK, BCL2L11, MYC, Bim, E2F1, TP53, IKZF1, IKZF3, RRM1, p18CDKN2C, PSMB5, PSMB7, PSMA3 and GAPDH, quantitative real time PCR (QRT-PCR) was performed using SYBR GREEN PCR Master Mix (Applied Biosystem), after optimization of the primer conditions. cDNAs were diluted 1:100 or 1:1000 and amplified in a 20 μL reaction. Primers were used at 200 nM or 400 nM concentration. Thermal cycling conditions were: 10 minutes at 95° C., 40 cycles at 95° C. for 15 seconds, followed by 1 minute at 60° C. Real-time quantitative PCR was performed on ABI Prism 7300 Sequence Detection System (Applied Biosystems). Data were analyzed using the delta delta Ct method. GAPDH was used as an invariant control.
pLKO.1-based shRNA vectors were obtained from the RNAi Consortium (Broad Institute). […] After 24 h of infection, cells expressing shRNA were selected with puromycin dihydrochloride (Sigma-Aldrich) at 1-2 μg/ml for 48 h, and then examined for proliferation and/or subjected to immunoblotting analysis. For siRNA transfection, scrambled, TP53RK, CRBN, p53, c-Myc and RRM1 siRNAs were purchased from Thermo Scientific (Lafayette, Colo.). siRNA transfection was carried out by Amaxa electroporation system using “Cell Line Nucleofector® Kit V or C” solution (Lonza, Koln, Germany).

[2] = tested on: LC3-II, Bim, PARP, MDM2, XIAP, cIAP, p-p70S6K; assay: Immunoblotting/qPCR of autophagy and apoptosis proteins in MM cells; assay type: cell-based; conditions: MM.1S cells
Procedure: as §1, §2

Chk1, ATM, ATR, Chk2 = assay: Immunoblotting of DNA damage kinase phosphorylation; assay type: cell-based; conditions: MM.1S cells, 48 h
Procedure: as §1

p53 [3] = assay: p53 DNA binding activity assay; assay type: cell-based; conditions: MM.1S and H929 cells, 48 h
Procedure: E2F1 DNA binding activity was assessed by electrophoretic mobility shift assay (EMSA) using “EMSA Gel Shift Kit®” from Affimetrix (Santa Clara, Calif.), and p53 DNA binding activity was performed using “p53 Transcription Factor Assay Kit®” from Cayman Chemical (Ann Arbor, Mich.). Experiments were carried out according to manufacturer's protocols.

hTERT = hTERT expression and telomerase activity (TeloTAGGG Telomerase PCR ELISA); assay type: cell-based; conditions: MM.1S cells and H929 cells
Procedure: as §1
Telomerase activity in MM.1S and H929 cells was assessed by “TeloTAGGG Telomerase PCR ELISA®” from Roche Applied Science (Mannheim, Germany).

TP53RK = biological target: T1, TP53RK (Homo sapiens, UniProt Q96S44); assay: In vitro TP53RK auto-phosphorylation assay; assay type: biochemical; conditions: dose-dependent; recombinant TP53RK and TPRKB
T1 construct: made in house; host or cells: HEK-293FT (transient calcium phosphate transfection; anti-DDK beads, Superdex 200)
T1 sequence (Q96S44 whole entry, other chains not shown): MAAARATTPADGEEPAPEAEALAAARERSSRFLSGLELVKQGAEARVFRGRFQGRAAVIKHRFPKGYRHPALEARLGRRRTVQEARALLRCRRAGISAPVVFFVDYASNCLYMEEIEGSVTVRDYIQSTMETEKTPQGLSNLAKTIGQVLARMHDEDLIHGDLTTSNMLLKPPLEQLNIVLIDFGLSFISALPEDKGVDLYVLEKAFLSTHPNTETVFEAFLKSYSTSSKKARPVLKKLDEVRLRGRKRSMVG
Excerpt: Full-length TP53RK and TPRKB sequences obtained from OriGene (Rockville, Md.) were cloned and inserted into pCMV6-AC-Myc-DDK. These constructs were transiently transfected into HEK-293FT cells to overexpress recombinant C-terminal Myc-DDK tagged TP53RK and TPRKB by calcium phosphate transfection. The recombinant proteins were immunoprecipitated with anti-DDK agarose beads and subjected to gel chromatography using Superdex 200 sizing column with an HPLC system. TP53RK and TPRKB proteins were co-eluted in the same fraction, whereas the TPRKB single protein was eluted in later fractions.
In vitro TP53RK auto-phosphorylation assay was performed as previously described^2. Briefly, purified recombinant TP53RK and TPRKB proteins (1.5-3 μg/reaction) were incubated with 25 uM [γ-32P]ATP (3000 Ci/mmol, 10 mCi/mL, PerkinElmer, Boston, Mass.) in HEPES buffer (25 mM HEPES (pH 7.5), 100 mM NaCl, 25 mM MgCl2. 2 mM DTT, phosphatase inhibitor mix (Roche) for 30 min at 30° C. The reaction was terminated by adding SDS sample buffer, and reaction mixtures were subjected to SDS-PAGE and autoradiography, as well as Coomassie blue staining.

RRM1, p18CDKN2C = assay: RRM1 and p18CDKN2C expression (RT-qPCR, Western blot); assay type: cell-based; conditions: H929 cells
Procedure: as §1, §2

c-Myc, IKZF1/3 = assay: c-Myc and IKZF1/3 expression (immunoblotting, qPCR); assay type: cell-based; conditions: MM.1S cells
Procedure: (§3) MM cells were harvested and lysed using RIPA-lysis buffer (Boston Bioproducts, Ashland, Mass.) containing 5 mM EDTA, 5 mM NaF, 2 mM Na3VO4, 1 mM PMSF, 5 μg/ml leupeptin, and 5 μg/ml aprotinin. Nuclear proteins were extracted using “Nuclear Extraction Kit” (Affimetrix). After the determination of protein concentration using DC protein assay (Bio-Rad, Hercules, Calif.), β-mercaptoethanol (-ME) was added to the whole-cell lysates to a 2% final concentration. […]
(§4) RNA was extracted using Trizol (Invitrogen) and quantified by a Nanodrop spectrophotometer (Labtech). […] After quantification, 2000 ng of RNA was used to synthesize cDNA via the Superscript II First strand synthesis Kit (Invitrogen), according to the manufacturer's instructions. To evaluate the expression levels of TP53RK, BCL2L11, MYC, Bim, E2F1, TP53, IKZF1, IKZF3, RRM1, p18CDKN2C, PSMB5, PSMB7, PSMA3 and GAPDH, quantitative real time PCR (QRT-PCR) was performed using SYBR GREEN PCR Master Mix (Applied Biosystem), after optimization of the primer conditions. cDNAs were diluted 1:100 or 1:1000 and amplified in a 20 μL reaction. […] Real-time quantitative PCR was performed on ABI Prism 7300 Sequence Detection System (Applied Biosystems). Data were analyzed using the delta delta Ct method. […]

E2F1 = E2F1 DNA binding activity (EMSA), protein and mRNA; assay type: cell-based; conditions: MM cells
Procedure: as §3, §4

MM cells = assay: Growth inhibition assay (MTT) / viable cell count (Trypan-blue); assay type: cell-based
Procedure: Cell growth was assessed by measuring 3-(4,5-dimethylthiazol-2-yl)-2,5-diphenyl […] bromide (MTT, Chemicon International, Temecula, Calif.) dye absorbance. Cells were pulsed with 10 μl of 5 mg/ml MTT to each well for the last 4 h of 48 h and/or 72 h cultures, followed by 100 μl isopropanol containing 0.04N HCl. Absorbance was measured at 570/630 nm using a spectrophotometer (Molecular Devices Corp., Sunnyvale Calif.).

proteasome = assay: Proteasome pathway (GSEA, qPCR) and chymotrypsin-like proteasome activity assay; assay type: cell-based; conditions: H929 cells
Procedure: as §2
Expression data for plasma cells from healthy donors, monoclonal gammopathy of undetermined significance (MGUS), and smoldering myeloma (SMM) were derived from GSE5900 dataset, while expression data from normal plasma cells and 65 MM patients were obtained from GSE4452 dataset, using expression profiling on Affymetrix GeneChip (t test, unpaired, equal variance). […] Data were then normalized and analyzed using D-chip software, seeking statistically significant differences among groups or in p53-target gene expression. Statistical significance was determined by Student t test. The minimal level of significance was P<0.05. […] Gene set enrichment analysis (GSEA) was performed as previously described (2) (GSEA v2.0 at http://www.broad.mit.edu/gsea) using gene set as permutation type, as well as 1,000 permutations and signal to noise as metrics for ranking genes.
Proteasome activity was measured by using Proteasome-Glo™ chymotrypsin-like cell-based assay (Promega, Madison, Wis.) according to manufacturer's protocol.

## O=C1CCC(N2C(=O)c3ccccc3C2=O)C(=O)N1 (centres unmarked) [Thal, Thalidomide]
p53 [1]; MM.1S cells, 48 h
  downstream p-p53 level: not
TP53RK, CRBN
  TP53RK level: not

## COc1ccc(C2=N[C@@H](c3ccc(Cl)cc3)[C@@H](c3ccc(Cl)cc3)N2C(=O)N2CCNC(=O)C2)c(OC(C)C)c1 [Nut3, Nutlin-3a]
[2]
  IMiD-triggered PARP cleavage in presence of Nut3: enhanced
  MDM2 and XIAP expression: upregulated
[2]; Nutlin-3a 0.5 μM, 48 h
  LC3-II upregulation triggered by Len and Pom, in presence of Nut3: markedly downregulated
p53 [1]; MM.1S cells, Nutlin-3a 0.5 μM, 48 h
  p-p53 and p53 levels: upregulated

## CCc1cc(C(N)=O)ccc1-n1nc(C(C)C)c2c(-n3cnc(-c4cnn(C)c4)c3)ccnc21 [TAS-116]
p53 [1]; MM.1S cells
  p-p53 modulation on Akt inhibition: in neither case was p-p53 modulation observed

## Nc1cccc2c1C(=O)N(C1CCC(=O)NC1=O)C2=O (centres unmarked) [Pom, pomalidomide]
[2]; 2.5 μM, 48 h
  LC3-II level: upregulation
p53 [1]; MM.1S cells
  potency of p-p53/p53 downregulation, Pom versus Len: more potently
p53 [1]; MM.1S cells, 2.5 μM, 48 h
  p53 phosphorylation at Ser20 and Ser37: no change
  phosphorylated (p-Ser15)-p53 and p53 levels: downregulated
p53 [1]; MM.1S cells, 48 h
  downstream p-p53 level: markedly reduced
p53 [1]; MM.1S cells, Len or Pom 2.5 μM with Nutlin-3a 0.5 μM, 48 h
  Nut3-induced upregulation of p-p53 and p53: inhibited
p53 [1]; nuclear extracts from MM.1S and H929 cell lines, patient MM cells
  p-p53/p53 downregulation: further confirmed
Chk1, ATM, ATR, Chk2
  phosphorylation of ATM, ATR or Chk2: not
  phosphorylation of Chk1: inhibited
TP53RK, CRBN
  TP53RK level: induced downregulation
p53 [3]
  p53 activity (p53 DNA binding): block
hTERT
  hTERT expression: significantly inhibited
  telomerase (hTERT) activity: significantly inhibited
TP53RK
  in vitro auto-phosphorylation of TP53RK: markedly downregulated
RRM1, p18CDKN2C
  RRM1 expression: downregulate
  p18CDKN2C expression: upregulate
c-Myc, IKZF1/3
  c-Myc transcription (real-time qPCR): decreased transcription
E2F1
  E2F1: increases
MM cells; H929 cells, 48 h
  drug-triggered growth inhibition in kinase-dead D163A TP53RK transfectants: abrogated
MM cells; H929 cells, TP53RK siRNA then Pom 48 h, p<0.02
  Pom-induced MM cell growth inhibition after TP53RK knockdown: enhanced
MM cells; MM.1S and H929 cells with wt-p53 versus cell lines with mutant p53
  sensitivity of MM cell lines to drug: more sensitive
MM cells; OPM2 cells (mutant p53) and H929 cells (wt-p53)
  drug-triggered cell death after CRBN knock-down: only partially abrogates
MM cells; among the IMiDs Thal, Len, Pom
  anti-MM activity: most potent anti-MM activity
proteasome
  chymotrypsin-like proteasome activity: downregulation
  proteasome pathway (GSEA): downregulation
